# Measured values reported in US20210115018A1, “PIPERIDINE COMPOUNDS AS COVALENT MENIN INHIBITORS” (THE REGENTS OF THE UNIVERSITY OF MICHIGAN, priority 2018, published 2021).
# How the values were obtained:
# menin protein = molecular target: T1, menin protein (Homo sapiens, UniProt O00255); assay: Fluorescence polarization (FP) competitive binding assay, menin binding affinity; settings: FP competition with FAM-MM2 probe 2 nM, menin 4 nM, 30 minutes room temperature
# T1 sequence (O00255 1-610): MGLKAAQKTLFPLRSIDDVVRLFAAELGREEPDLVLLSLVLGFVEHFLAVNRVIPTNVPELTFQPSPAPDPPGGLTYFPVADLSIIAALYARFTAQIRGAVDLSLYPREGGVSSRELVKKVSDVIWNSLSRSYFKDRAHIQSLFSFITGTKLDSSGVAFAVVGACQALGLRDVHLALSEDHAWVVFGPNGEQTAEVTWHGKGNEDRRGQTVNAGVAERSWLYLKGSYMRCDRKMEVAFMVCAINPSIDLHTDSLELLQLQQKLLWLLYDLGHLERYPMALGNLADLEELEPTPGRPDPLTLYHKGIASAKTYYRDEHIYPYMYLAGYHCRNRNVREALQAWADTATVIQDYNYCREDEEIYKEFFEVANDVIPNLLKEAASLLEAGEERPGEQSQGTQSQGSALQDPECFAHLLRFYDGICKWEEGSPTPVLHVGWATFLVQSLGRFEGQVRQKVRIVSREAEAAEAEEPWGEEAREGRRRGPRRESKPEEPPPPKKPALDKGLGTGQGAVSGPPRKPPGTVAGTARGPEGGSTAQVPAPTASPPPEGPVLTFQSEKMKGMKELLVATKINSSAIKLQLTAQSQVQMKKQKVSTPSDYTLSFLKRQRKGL
# In short: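 Competitive FP with FAM-labeled MLL1 peptide probe FAM-MM2 (2 nM) and menin (4 nM) in PBS, 0.02% bovine γ-globulin, 4% DMSO, 0.01% Triton X-100. After 30 min at room temperature, mP read at 485/530 nm; IC50 from nonlinear regression against probe-only and complex-only controls.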
# MOLM13 = assay: 7-day proliferation assay (WST-8), cell growth inhibition; format: cell-based; settings: Homo sapiens, MOLM-13, 168 h, MOLM13 cells, 7 days
# In short: (§1)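 Cells seeded at 2,000-3,000/well were exposed to serially diluted compound for 7 days at 37° C., 5% CO2. Viability was read by WST-8 absorbance at 450 nm after 1-2 h color development; readings normalized to DMSO-treated cells, IC50 by four-parameter nonlinear regression.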
# MV4-11 = assay: as above; format: cell-based; settings: Homo sapiens, MV4-11, 168 h, MV4-11 cells, 7 days
# In short: as §1
SMILES,IC50 (menin protein),IC50 (MOLM13),IC50 (MV4-11)
"C=C(CN(C)C)C(=O)N1CC(S(=O)(=O)c2ccc(N3CC(F)(CN4CCC([C@@](CN5CCC5)(c5cccc(F)c5)[C@H]5CCC[C@@H]5NC(=O)OC)CC4)C3)cc2)C1 [Cpd. No. 13, methyl ((1S,2R)-2-((S)-2-(azetidin-1-yl)-1-(1-((1-(4-((1-(2-((dimethylamino)methyl)acryloyl)azetidin-3-yl)sulfonyl)phenyl)-3-fluoroazetidin-3-yl)methyl)piperidin-4-yl)-1-(3-fluorophenyl)ethyl)cyclopentyl)carbamate]",1 nM,< 100 nM,< 10 nM
C=CC(=O)N1CCCC[C@@H](S(=O)(=O)c2ccc(N3CC(C)(CN4CCC([C@@](CN5CCC5)(c5cccc(F)c5)[C@H]5CCC[C@@H]5NC(=O)OC)CC4)C3)cc2)C1 [compound 222],4 nM,< 50 nM,< 50 nM
COC(=O)N[C@H]1CCC[C@@H]1[C@](CN1CCC1)(c1cccc(F)c1)C1CCN(CC2CN(c3ccc(S(=O)(=O)C4CN(C(=O)/C=C/CN5CC(F)(F)C5)C4)cc3)C2)CC1 [Cpd. No. 175],1 nM,< 10 nM,< 10 nM
C=CC(=O)N1CCCC[C@@H](S(=O)(=O)c2ccc(N3CC(F)(CN4CCC([C@@](CN5CCC5)(c5cccc(F)c5)[C@H]5CCC[C@@H]5NC(=O)OC)CC4)C3)cc2)C1 [compound 221],5 nM,< 50 nM,< 50 nM
"C=C(CN1CCCCC1)C(=O)N1CC(S(=O)(=O)c2ccc(N3CC(CN4CCC([C@@](CN5CCC5)(c5cccc(F)c5)[C@H]5CCC[C@@H]5NC(=O)OC)CC4)C3)cc2)C1 [Cpd. No. 17, methyl ((1S,2R)-2-((S)-2-(azetidin-1-yl)-1-(3-fluorophenyl)-1-(1-((1-(4-((1-(2-(piperidin-1-ylmethyl)acryloyl)azetidin-3-yl)sulfonyl)phenyl)azetidin-3-yl)methyl)piperidin-4-yl)ethyl)cyclopentyl)carbamate]",2 nM,< 100 nM,< 10 nM
CC#CC(=O)N1CCCC[C@@H](S(=O)(=O)c2ccc(N3CC(F)(CN4CCC([C@@](CN5CCC5)(c5cccc(F)c5)[C@H]5CCC[C@@H]5NC(=O)OC)CC4)C3)cc2)C1 [compound 231],4 nM,< 500 nM,< 500 nM
CC#CC(=O)N1CCCC[C@@H](S(=O)(=O)c2ccc(N3CC(CN4CCC([C@@](CN5CCC5)(c5cccc(F)c5)[C@H]5CCC[C@@H]5NC(=O)OC)CC4)(OC)C3)c(F)c2)C1 [compound 232],3 nM,< 500 nM,< 100 nM
CC#CC(=O)N1CC(S(=O)(=O)c2ccc(N3CC(F)(CN4CCC([C@@](CN5CCC5)(c5cccc(F)c5)[C@H]5CCC[C@@H]5NC(=O)OC)CC4)C3)c(F)c2)C1 [compound 102],,< 50 nM,< 10 nM
C=CC(=O)N1CCC[C@@H](S(=O)(=O)c2ccc(N3CC(CN4CCC([C@@](CNC(C)=O)(c5cccc(F)c5)[C@H]5CCC[C@@H]5NC(=O)OC)CC4)C3)cc2)C1 [compound 199],,< 50 nM,< 50 nM
C=CC(=O)N1CCOC[C@H](S(=O)(=O)c2ccc(N3CC(C)(CN4CCC([C@@](CN5CCC5)(c5cccc(F)c5)[C@H]5CCC[C@@H]5NC(=O)OC)CC4)C3)cc2)C1 [compound 213],,< 100 nM,< 50 nM
C=CC(=O)N1CC(S(=O)(=O)c2ccc(N3CC(F)(CN4CCC([C@@](CNC(C)=O)(c5cccc(F)c5)[C@H]5CCC[C@@H]5NC(=O)OC)CC4)C3)cc2CN2CC(F)C2)C1 [compound 177],,< 500 nM,< 100 nM
C=CC(=O)Nc1cc(N(C)CCN(C)C)cc(S(=O)(=O)c2ccc(N3CC(CN4CCC([C@@](CN5CCC5)(c5cccc(F)c5)[C@H]5CCC[C@@H]5NC(=O)OC)CC4)C3)cc2)c1 [compound 75],,< 50 nM,< 10 nM
COC(=O)N[C@H]1CCC[C@@H]1[C@](CN1CCC1)(c1cccc(F)c1)C1CCN(CC2(F)CN(c3ccc(S(=O)(=O)C4CCCN(C(=O)/C=C/CO)C4)cc3F)C2)CC1 (stereo partly shown) [compound 122],,< 100 nM,< 50 nM
C=CC(=O)Nc1cccc(S(=O)(=O)c2ccc(N3CC(CN4CCC([C@@](CN5CCC5)(c5cccc(F)c5)[C@H]5CCC[C@@H]5NC(=O)OC)CC4)(OC)C3)c(F)c2)c1 [compound 187],,< 10 nM,< 10 nM
C=CC(=O)N1CCOC[C@@H](S(=O)(=O)c2ccc(N3CC(C)(CN4CCC([C@@](CN5CCC5)(c5cccc(F)c5)[C@H]5CCC[C@@H]5NC(=O)OC)CC4)C3)cc2)C1 [compound 214],,< 500 nM,< 500 nM
C=CC(=O)N1CCc2c1cccc2S(=O)(=O)c1ccc(N2CC(F)(CN3CCC([C@@](CN4CCC4)(c4cccc(F)c4)[C@H]4CCC[C@@H]4NC(=O)OC)CC3)C2)c(F)c1 [compound 127],,< 500 nM,< 100 nM
C=CC(=O)N1CCOC[C@@H](S(=O)(=O)c2ccc(N3CC(CN4CCC([C@@](CNC(=O)OC)(c5cccc(F)c5)[C@H]5CCC[C@@H]5NC(=O)OC)CC4)C3)c(F)c2)C1 [compound 179],,< 100 nM,< 50 nM
C=CC(=O)Nc1cc(S(=O)(=O)c2ccc(N3CC(F)(CN4CCC([C@@](CN5CCC5)(c5cccc(F)c5)[C@H]5CCC[C@@H]5NC(=O)OC)CC4)C3)cc2)ccn1 [compound 82],,< 100 nM,< 10 nM
C=CC(=O)Nc1cc(S(=O)(=O)c2ccc(N3CC(F)(CN4CCC([C@@](CN5CCC5)(c5cccc(F)c5)[C@H]5CCC[C@@H]5NC(=O)OC)CC4)C3)c(F)c2)ccc1OC [compound 92],,< 50 nM,< 10 nM

# Other lines, results leading:
IC50 (menin protein),IC50 (MOLM13),IC50 (MV4-11),SMILES
9 nM,< 100 nM,< 10 nM,COC(=O)N[C@H]1CCC[C@@H]1[C@](CN1CCC1)(c1cccc(F)c1)C1CCN(CC2CN(c3ccc(S(=O)(=O)C4CN(C(=O)/C=C/CN5CCC(C)(O)CC5)C4)cc3)C2)CC1 [compound 99]
2 nM,< 100 nM,< 10 nM,"COC(=O)N[C@H]1CCC[C@@H]1[C@](CN1CCC1)(c1cccc(F)c1)C1CCN(CC2CN(c3ccc(S(=O)(=O)C4CN(C(=O)/C=C/CN5CCCC5)C4)cc3)C2)CC1 [Cpd. No. 20, methyl ((1S,2R)-2-((S)-2-(azetidin-1-yl)-1-(3-fluorophenyl)-1-(1-((1-(4-((1-((E)-4-(pyrrolidin-1-yl)but-2-enoyl)azetidin-3-yl)sulfonyl)phenyl)azetidin-3-yl)methyl)piperidin-4-yl)ethyl)cyclopentyl)carbamate]"
8 nM,< 500 nM,< 100 nM,C=CC(=O)N1CCCC[C@@H](S(=O)(=O)c2ccc(N3CC(O)(CN4CCC([C@@](CN5CCC5)(c5cccc(F)c5)[C@H]5CCC[C@@H]5NC(=O)OC)CC4)C3)c(F)c2)C1 [compound 229]
,< 100 nM,< 10 nM,COC(=O)N[C@H]1CCC[C@@H]1[C@](CNC(C)=O)(c1cccc(F)c1)C1CCN(CC2CN(c3ccc(S(=O)(=O)C4CN(C(=O)/C=C/CN(C)C)C4)cc3)C2)CC1 [compound 128]
,< 50 nM,< 50 nM,C=CC(=O)N1CCOCC(S(=O)(=O)c2ccc(N3CC(F)(CN4CCC([C@@](CN5CCC5)(c5cccc(F)c5)[C@H]5CCC[C@@H]5NC(=O)OC)CC4)C3)cc2)C1 (stereo partly shown) [compound 125]
,< 50 nM,< 50 nM,C=CC(=O)N1CCCC[C@@H](S(=O)(=O)c2ccc(N3CC(CN4CCC([C@@](CNC(=O)OC)(c5cccc(F)c5)[C@H]5CCC[C@@H]5NC(=O)OC)CC4)C3)c(F)c2)C1 [compound 186]
,< 50 nM,< 50 nM,C=CC(=O)N1CC(S(=O)(=O)c2ccc(N3CC(CN4CCC([C@@](CNC(C)=O)(c5cccc(F)c5)[C@H]5CCC[C@@H]5NC(=O)OC)CC4)C3)cc2CN2CC(F)C2)C1 [compound 176]
,< 50 nM,< 10 nM,COC(=O)N[C@H]1CCC[C@@H]1[C@](CN1CCC1)(c1cccc(F)c1)C1CCN(CC2(F)CN(c3ccc(S(=O)(=O)C4CN(C(=O)/C=C/CN5CCCCC5)C4)cc3F)C2)CC1 [compound 94]
,< 50 nM,< 10 nM,C=CC(=O)Nc1cc(F)cc(S(=O)(=O)c2ccc(N3CC(CN4CCC([C@@](CN5CCC5)(c5cccc(F)c5)[C@H]5CCC[C@@H]5NC(=O)OC)CC4)C3)cc2)c1 [compound 72]
,< 50 nM,< 10 nM,C=CC(=O)Nc1cccc(S(=O)(=O)c2ccc(N3CC(F)(CN4CCC([C@@](CN5CCC5)(c5cccc(F)c5)[C@H]5CCC[C@@H]5NC(=O)OC)CC4)C3)cc2)c1 [compound 76]
,< 10 nM,< 10 nM,C=CC(=O)Nc1cccc(S(=O)(=O)c2ccc(N3CC(CN4CCC([C@@](CN5CCC5)(c5cccc(F)c5)[C@H]5CCC[C@@H]5NC(=O)OC)CC4)(OC)C3)cc2)c1 [compound 188]
